Measurements published in patent US10798943B2, “Use of 6-anilino purine derivatives to improve heat stress tolerance of rice seedlings” (SYNGENTA PARTICIPATIONS AG, priority 2016, dated 2020).

Key:
Assay type in all cases: in vivo
[1] = system: rice seedlings (hybrid rice variety ADT45) under heat stress; assay: NVDI by Green Seeker crop sensor, Kumbakonam trial; set-up: key: NVDI as percentage green area (Green Seeker)
Description: (§1) Trials were setup in two locations in India to test the effect of compounds of formula I on tolerance of rice seedlings to heat stress during transplantation.
(§2) For each trial, hybrid rice variety ADT45 was sown in seedling boxes. A compound of formula (Ia) was applied by foliar spray in the form of an EC formulation, at various dose rates and seedling growth stages as shown in Table 1.
(§3) Transplanting took place at the […] growth stage. Transplant shock was used as an indicator of tolerance to heat stress, and was measured via visual assessment of damage severity on a scale of 0% (no damage) to 100% (dead plant); observations such as yellowing and leaf tip burning are indicators of damage. Transplant shock was also assessed by measuring NVDI values using a Green Seeker™ crop sensor, which measures the percentage green area. A low transplant shock stress rating and high NVDI rating indicate improved tolerance to transplant shock stress.
(§4) The trial was carried out between 7 May 2015 and 15 Jun. 2015, with transplanting on 29 May 2015. The mean maximum daily temperature during the trial period was 37.3° C., and mean minimum daily temperature during the trial period was 24.9° C. The mean temperature during the entire trial period was 31.1° C.

[2] = system: rice seedlings (hybrid rice variety ADT45); assay: Phytotoxicity assessments at Kumbakonam trial; details: for Greenness at 3.2 leaf / Seedling height at 3.2 leaf / Seedling injury / Time to 3.2 leaf / Uniformity of foliage growth at 3.2 leaf / Uniformity of greening at 3.2 leaf / Whiteness of root mat at 3.2 leaf: Kumbakonam
Description: For each trial, hybrid rice variety ADT45 was sown in seedling boxes. A compound of formula (Ia) was applied by foliar spray in the form of an EC formulation, at various dose rates and seedling growth stages as shown in Table 1. [table] […] The trial was carried out between 7 May 2015 and 15 Jun. 2015, with transplanting on 29 May 2015. The mean maximum daily temperature during the trial period was 37.3° C., and mean minimum daily temperature during the trial period was 24.9° C. The mean temperature during the entire trial period was 31.1° C.

[3] = system: rice seedlings (hybrid rice variety ADT45) under heat stress; assay: Transplant shock stress, visual assessment of damage severity, Ramapuram trial; details: for Transplanting shock stress (8th day) / Transplanting shock stress (12th day) / Transplanting shock stress (4th day): Ramapuram
Description: as §1, §2, §3
as §4, with “5 Aug.” for “7 May”, “9 Sep.” for “15 Jun.”, “15 Aug.” for “29 May”, “35.3°” for “37.3°”, “23.7°” for “24.9°”, “30.2°” for “31.1°”

rice under heat stress = assay: Yield in 2016 trial (Trial 3)
[4] = treatment 2: 5 g ai/ha, Pigeon-breast
[5] = treatment 3: 10 g ai/ha, Pigeon-breast
[6] = treatment 4: 20 g ai/ha, Pigeon-breast
[7] = treatment 6: 10 g ai/ha, 2-leaf
[8] = treatment 7: 20 g ai/ha, 2-leaf
[9] = treatment 9: 10 g ai/ha, 3-leaf
[10] = treatment 10: 20 g ai/ha, 3-leaf
[11] = treatment 3: 10 g ai/ha, Sowing
[12] = treatment 5: 10 g ai/ha, 2-leaf
[13] = treatment 7: 10 g ai/ha, 3-leaf

SMILES: COc1cccc(Nc2nc(F)nc3[nH]cnc23)c1 [Formula Ia]
- NVDI data (10 DAT) [1, 4]: 12
- NVDI data (15 DAT) [1, 4]: 19
- NVDI data (10 DAT) [1, 5]: 6
- NVDI data (15 DAT) [1, 5]: 19
- NVDI data (10 DAT) [1, 6]: 10
- NVDI data (15 DAT) [1, 6]: 20
- NVDI data (10 DAT) ([1]; treatment 5: 5 g ai/ha, 2-leaf): 13
- NVDI data (15 DAT) ([1]; treatment 5: 5 g ai/ha, 2-leaf): 22
- NVDI data (10 DAT) [1, 7]: 12
- NVDI data (15 DAT) [1, 7]: 20
- NVDI data (10 DAT) [1, 8]: 11
- NVDI data (15 DAT) [1, 8]: 19
- NVDI data (10 DAT) ([1]; treatment 8: 5 g ai/ha, 3-leaf): 10
- NVDI data (15 DAT) ([1]; treatment 8: 5 g ai/ha, 3-leaf): 19
- NVDI data (10 DAT) [1, 9]: 15
- NVDI data (15 DAT) [1, 9]: 18
- NVDI data (10 DAT) [1, 10]: 15
- NVDI data (15 DAT) [1, 10]: 20
- Phytotoxic effects to the rice seedlings (summary) ([2]; Kumbakonam trial, some marginal effects at the highest dose rate): did not cause any phytotoxic effects
- Greenness at 3.2 leaf [2, 4]: 3 unit
- Seedling height at 3.2 leaf [2, 4]: 14 cm
- Seedling injury [2, 4]: 0%
- Time to 3.2 leaf [2, 4]: 14 days
- Uniformity of foliage growth at 3.2 leaf [2, 4]: 90%
- Uniformity of greening at 3.2 leaf [2, 4]: 95%
- Whiteness of root mat at 3.2 leaf [2, 4]: 90%
- Greenness at 3.2 leaf [2, 5]: 3 unit
- Seedling height at 3.2 leaf [2, 5]: 13 cm
- Seedling injury [2, 5]: 0%
- Time to 3.2 leaf [2, 5]: 14 days
- Uniformity of foliage growth at 3.2 leaf [2, 5]: 90%
- Uniformity of greening at 3.2 leaf [2, 5]: 95%
- Whiteness of root mat at 3.2 leaf [2, 5]: 90%
- Greenness at 3.2 leaf [2, 6]: 3 unit
- Seedling height at 3.2 leaf [2, 6]: 13 cm
- Seedling injury [2, 6]: 0%
- Time to 3.2 leaf [2, 6]: 14 days
- Uniformity of foliage growth at 3.2 leaf [2, 6]: 90%
- Uniformity of greening at 3.2 leaf [2, 6]: 95%
- Whiteness of root mat at 3.2 leaf [2, 6]: 90%
- Greenness at 3.2 leaf ([2]; treatment 5: 5 g ai/ha, 2-leaf): 3 unit
- Seedling height at 3.2 leaf ([2]; treatment 5: 5 g ai/ha, 2-leaf): 14 cm
- Seedling injury ([2]; treatment 5: 5 g ai/ha, 2-leaf): 0%
- Time to 3.2 leaf ([2]; treatment 5: 5 g ai/ha, 2-leaf): 13 days
- Uniformity of foliage growth at 3.2 leaf ([2]; treatment 5: 5 g ai/ha, 2-leaf): 95%
- Uniformity of greening at 3.2 leaf ([2]; treatment 5: 5 g ai/ha, 2-leaf): 95%
- Whiteness of root mat at 3.2 leaf ([2]; treatment 5: 5 g ai/ha, 2-leaf): 85%
- Greenness at 3.2 leaf [2, 7]: 2.8 unit
- Seedling height at 3.2 leaf [2, 7]: 14 cm
- Seedling injury [2, 7]: 3%
- Time to 3.2 leaf [2, 7]: 13 days
- Uniformity of foliage growth at 3.2 leaf [2, 7]: 90%
- Uniformity of greening at 3.2 leaf [2, 7]: 90%
- Whiteness of root mat at 3.2 leaf [2, 7]: 85%
- Greenness at 3.2 leaf [2, 8]: 2.5 unit
- Seedling height at 3.2 leaf [2, 8]: 14 cm
- Seedling injury [2, 8]: 8%
- Time to 3.2 leaf [2, 8]: 13 days
- Uniformity of foliage growth at 3.2 leaf [2, 8]: 90%
- Uniformity of greening at 3.2 leaf [2, 8]: 85%
- Whiteness of root mat at 3.2 leaf [2, 8]: 85%
- Greenness at 3.2 leaf ([2]; treatment 8: 5 g ai/ha, 3-leaf): 3 unit
- Seedling height at 3.2 leaf ([2]; treatment 8: 5 g ai/ha, 3-leaf): 14 cm
- Seedling injury ([2]; treatment 8: 5 g ai/ha, 3-leaf): 0%
- Time to 3.2 leaf ([2]; treatment 8: 5 g ai/ha, 3-leaf): 13 days
- Uniformity of foliage growth at 3.2 leaf ([2]; treatment 8: 5 g ai/ha, 3-leaf): 90%
- Uniformity of greening at 3.2 leaf ([2]; treatment 8: 5 g ai/ha, 3-leaf): 95%
- Whiteness of root mat at 3.2 leaf ([2]; treatment 8: 5 g ai/ha, 3-leaf): 90%
- Greenness at 3.2 leaf [2, 9]: 3 unit
- Seedling height at 3.2 leaf [2, 9]: 14 cm
- Seedling injury [2, 9]: 0%
- Time to 3.2 leaf [2, 9]: 13 days
- Uniformity of foliage growth at 3.2 leaf [2, 9]: 90%
- Uniformity of greening at 3.2 leaf [2, 9]: 95%
- Whiteness of root mat at 3.2 leaf [2, 9]: 90%
- Greenness at 3.2 leaf [2, 10]: 2.5 unit
- Seedling height at 3.2 leaf [2, 10]: 14 cm
- Seedling injury [2, 10]: 15%
- Time to 3.2 leaf [2, 10]: 13 days
- Uniformity of foliage growth at 3.2 leaf [2, 10]: 90%
- Uniformity of greening at 3.2 leaf [2, 10]: 85%
- Whiteness of root mat at 3.2 leaf [2, 10]: 85%
- Tolerance to heat stress / transplant shock stress, comparison of treatments ([3]; Ramapuram trial, treatments 5 and 6 (2-leaf growth stage, 5-10 g ai/ha)): giving the best results
- Transplanting shock stress (8th day) [3, 4]: 12%
- Transplanting shock stress (12th day) [3, 4]: 13%
- Transplanting shock stress (4th day) ([3]; treatment 2: 5 g ai/ha, Pigeon-breast, scale 0% no damage to 100% dead plant): 4%
- Transplanting shock stress (4th day) [3, 5]: 3%
- Transplanting shock stress (8th day) [3, 5]: 7%
- Transplanting shock stress (12th day) [3, 5]: 17%
- Transplanting shock stress (4th day) [3, 6]: 4%
- Transplanting shock stress (8th day) [3, 6]: 8%
- Transplanting shock stress (12th day) [3, 6]: 20%
- Transplanting shock stress (4th day) ([3]; treatment 5: 5 g ai/ha, 2-leaf): 0%
- Transplanting shock stress (8th day) ([3]; treatment 5: 5 g ai/ha, 2-leaf): 2%
- Transplanting shock stress (12th day) ([3]; treatment 5: 5 g ai/ha, 2-leaf): 4%
- Transplanting shock stress (4th day) [3, 7]: 0%
- Transplanting shock stress (8th day) [3, 7]: 1%
- Transplanting shock stress (12th day) [3, 7]: 7%
- Transplanting shock stress (4th day) [3, 8]: 9%
- Transplanting shock stress (8th day) [3, 8]: 8%
- Transplanting shock stress (12th day) [3, 8]: 11%
- Transplanting shock stress (4th day) ([3]; treatment 8: 5 g ai/ha, 3-leaf): 7%
- Transplanting shock stress (8th day) ([3]; treatment 8: 5 g ai/ha, 3-leaf): 12%
- Transplanting shock stress (12th day) ([3]; treatment 8: 5 g ai/ha, 3-leaf): 13%
- Transplanting shock stress (4th day) [3, 9]: 13%
- Transplanting shock stress (8th day) [3, 9]: 20%
- Transplanting shock stress (12th day) [3, 9]: 31%
- Transplanting shock stress (4th day) [3, 10]: 23%
- Transplanting shock stress (8th day) [3, 10]: 37%
- Transplanting shock stress (12th day) [3, 10]: 34%
- Average yield increase compared to UTC (rice under heat stress; treatment 2: 5 g ai/ha, Sowing): +2.9%
- Yield at 14% MC (rice under heat stress; treatment 2: 5 g ai/ha, Sowing): 6799 kg/ha
- Average yield increase compared to UTC (rice under heat stress; [11]): −0.1%
- Yield at 14% MC (rice under heat stress; [11]): 6603 kg/ha
- Average yield increase compared to UTC (rice under heat stress; treatment 4: 5 g ai/ha, 2-leaf): +6.2%
- Yield at 14% MC (rice under heat stress; treatment 4: 5 g ai/ha, 2-leaf): 7014 kg/ha
- Average yield increase compared to UTC (rice under heat stress; [12]): +8.8%
- Yield at 14% MC (rice under heat stress; [12]): 7189 kg/ha
- Average yield increase compared to UTC (rice under heat stress; treatment 6: 5 g ai/ha, 3-leaf): +5.6%
- Yield at 14% MC (rice under heat stress; treatment 6: 5 g ai/ha, 3-leaf): 6978 kg/ha
- Average yield increase compared to UTC (rice under heat stress; [13]): +3.3%
- Yield at 14% MC (rice under heat stress; [13]): 6830 kg/ha
